Values quoted from earlier work as cited in patent publication US11318113B2, “Compounds for the treatment of diseases linked to mitochondrial reactive oxygen species (ROS) production” (OP2 DRUGS, priority 2015, dated 2022).

System: complex I
Conditions: Orr et al., 2013; cited from earlier work

For O=[N+]([O-])c1ccc(Oc2ccc(S(=O)(=O)NC3CCCCC3)cc2)cc1 [N-cyclohexyl-4-(4-nitrophenoxy) benzenesulfonamide], which “activity of complex I as a component of the respiratory chain and oxidative phosphorylation” value is on record?
Its value is “does not modify”.
